A word on the IC50: it is the concentration at which inhibition is half-maximal. Low readings indicate greater potency, high ones weaker potency.

This is an account of results in patent US20120101093A1, “SUBSTITUTED IMIDAZO[1,2-A]PYRIDINE DERIVATIVES, PHARMACEUTICAL COMPOSITIONS, AND METHODS OF USE AS BETA-SECRETASE INHIBITORS” (HIGH POINT PHARMACEUTICALS, LLC, priority 2009, published 2012).

Structures are written as SMILES.

The experiment concerns the target T1, BACE-1 enzyme (Homo sapiens, UniProt P56817).
T1 construct: purchased R & D Systems 931AS
The experiment in a line: BACE Fluorescence Resonance Energy Transfer (FRET) Assay. The conditions noted are these: pH 4-4.5, 30 min pre-incubation, about 1.5 hours reaction. Format: biochemical. The procedure:
BACE Fluorescence Resonance Energy Transfer (FRET) Assay
In the following assay, the proteolytic activity of BACE is measured by observing cleavage of a fluorescent group from a peptide substrate containing a rhodamine fluorescent donor and a quenching acceptor.
The inhibitory activity of compounds of Formula (I) may be compared to a statine derived control inhibitor STA200 (MP Biomedical Cat. #STA-200). The cleavage reaction occurs when a BACE-1 substrate (Invitrogen, Cat. #P2986) was added to a reaction mixture containing BACE-1 enzyme (R & D Systems, Cat. #931AS) and allowed to proceed for about 1.5 hours. Fluorescence, used as a marker of BACE activity, is monitored using 540 nm excitation and 585 nm emission wavelengths (Envision, Perkin Elmer).
A typical assay reaction contains BACE-1 enzyme—in assay buffer (50 mM sodium acetate, pH 4-4.5, 0.01% CHAPS (3-[(3-Cholamidopropyl)dimethylammonio]-1-propanesulfonate), 0.0125% TritonX-100, 0.006% EDTA) which is pre-incubated for 30 minutes with test compound in 7.5% DMSO. The reaction is initiated with the addition of BACE-1 substrate in assay buffer and allowed to proceed for about 1.5 hours at room temperature. Assays are conducted in black 384-well microtiter plates and scanned at room temperature using 540 nm excitation and 585 nm emission wavelengths.
In some instances, the percent inhibition at a given concentration is reported instead of the IC50.

T1 sequence (P56817 46-457 limits assumed): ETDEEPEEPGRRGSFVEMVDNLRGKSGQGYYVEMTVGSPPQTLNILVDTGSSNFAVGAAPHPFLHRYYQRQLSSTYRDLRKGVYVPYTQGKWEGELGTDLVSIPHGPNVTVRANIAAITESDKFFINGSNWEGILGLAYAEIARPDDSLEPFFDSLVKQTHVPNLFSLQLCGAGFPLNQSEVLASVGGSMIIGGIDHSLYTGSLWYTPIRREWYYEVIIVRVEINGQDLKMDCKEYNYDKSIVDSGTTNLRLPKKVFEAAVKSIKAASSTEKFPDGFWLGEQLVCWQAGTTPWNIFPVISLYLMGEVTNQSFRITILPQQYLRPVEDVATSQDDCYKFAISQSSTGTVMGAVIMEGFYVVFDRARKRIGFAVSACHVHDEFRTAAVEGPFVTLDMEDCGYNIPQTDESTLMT

`Cc1ccc(-c2ccc3[nH]c(NC(=O)c4cn5c(C)cccc5n4)nc3c2)cc1` [Example 120, 5-Methyl-imidazo[1,2-a]pyridine-2-carboxylic acid (5-p-tolyl-1H-benzoimidazol-2-yl)-amide] registered an IC50 of 0.49 µM.
In the case of `O=C(Nc1nc2cc(-c3cccc(C(F)(F)F)c3)ccc2[nH]1)c1cn2c(-c3ccccc3)cccc2n1` [Example 125, 5-Phenyl-imidazo[1,2-a]pyridine-2-carboxylic acid [5-(3-trifluoromethyl-phenyl)-1H-benzoimidazol-2-yl]-amide], the midpoint of inhibition, the IC50, lay at 1.17 µM.
In the case of `CN1CCN(c2cc(F)cn3cc(C(=O)Nc4nc5cc(-c6cc(F)cc(Cl)c6)ccc5[nH]4)nc23)CC1` [Example 128, 6-Fluoro-8-(4-methyl-piperazin-1-yl)-imidazo[1,2-a]pyridine-2-carboxylic acid [5-(3-chloro-5-fluoro-phenyl)-1H-benzoimidazol-2-yl]-amide], it took 0.31 µM to reach half-maximal inhibition (IC50).
As for `CCOc1cc(F)cn2cc(C(=O)Nc3nc4cc(-c5cc(F)cc(Cl)c5)ccc4[nH]3)nc12` [Example 129, 8-Ethoxy-6-fluoro-imidazo[1,2-a]pyridine-2-carboxylic acid [5-(3-chloro-5-fluoro-phenyl)-1H-benzoimidazol-2-yl]-amide], inhibition was half-maximal at 0.43 µM (IC50).
On to `O=C(Nc1nc2cc(-c3cc(F)cc(Cl)c3)ccc2[nH]1)c1cn2cc(F)cc(N3CCNCC3)c2n1` [Example 130, 6-Fluoro-8-piperazin-1-yl-imidazo[1,2-a]pyridine-2-carboxylic acid [5-(3-chloro-5-fluoro-phenyl)-1H-benzoimidazol-2-yl]-amide], for which the IC50 amounted to 0.35 µM.
Take `CN(C)c1cc(F)cn2cc(C(=O)Nc3nc4cc(-c5cc(F)cc(Cl)c5)ccc4[nH]3)nc12` [Example 131, 8-Dimethylamino-6-fluoro-imidazo[1,2-a]pyridine-2-carboxylic acid [5-(3-chloro-5-fluoro-phenyl)-1H-benzoimidazol-2-yl]-amide]: the IC50 was 1.01 µM. This IC50 lies about 2.9-fold higher than the previous one.
Take `CNc1cc(F)cn2cc(C(=O)Nc3nc4cc(-c5cccc(OC(F)(F)F)c5)ccc4[nH]3)nc12` [Example 132, 6-Fluoro-8-methylamino-imidazo[1,2-a]pyridine-2-carboxylic acid [5-(3-trifluoromethoxy-phenyl)-1H-benzoimidazol-2-yl]-amide]: the midpoint of inhibition, the IC50, lay at 1.04 µM.
To `CN(C)c1cc(F)cn2cc(C(=O)Nc3nc4cc(-c5cccc(OC(F)(F)F)c5)ccc4[nH]3)nc12` [Example 133, 8-Dimethylamino-6-fluoro-imidazo[1,2-a]pyridine-2-carboxylic acid [5-(3-trifluoromethoxy-phenyl)-1H-benzoimidazol-2-yl]-amide] belongs 0.64 µM; to `O=C(Nc1nc2cc(-c3cccc(OC(F)(F)F)c3)ccc2[nH]1)c1cn2cc(F)cc(N3CCNCC3)c2n1` [Example 134, 6-Fluoro-8-piperazin-1-yl-imidazo[1,2-a]pyridine-2-carboxylic acid [5-(3-trifluoromethoxy-phenyl)-1H-benzoimidazol-2-yl]-amide], 0.29 µM; to `CN1CCN(c2cc(F)cn3cc(C(=O)Nc4nc5cc(-c6cccc(OC(F)(F)F)c6)ccc5[nH]4)nc23)CC1` [Example 135, 6-Fluoro-8-(4-methyl-piperazin-1-yl)-imidazo[1,2-a]pyridine-2-carboxylic acid [5-(3-trifluoromethoxy-phenyl)-1H-benzoimidazol-2-yl]-amide], 0.2 µM.
`COc1cc(F)cn2cc(C(=O)Nc3nc4cc(-c5cccc(OC(F)(F)F)c5)ccc4[nH]3)nc12` [Example 136, 6-Fluoro-8-methoxy-imidazo[1,2-a]pyridine-2-carboxylic acid [5-(3-trifluoromethoxy-phenyl)-1H-benzoimidazol-2-yl]-amide]: the midpoint of inhibition, the IC50, lay at 0.23 µM. The IC50 values of the last two molecules are within 1.5-fold of each other.
On to `CCOc1cccc2nc(C(=O)Nc3nc4cc(-c5cccc(C(F)(F)F)c5)ccc4[nH]3)cn12` [Example 137, 5-Ethoxy-imidazo[1,2-a]pyridine-2-carboxylic acid [5-(3-trifluoromethyl-phenyl)-1H-benzoimidazol-2-yl]-amide], for which half-maximal inhibition (IC50) was put at 1.39 µM.
Turning to `COCCNc1cc(F)cn2cc(C(=O)Nc3nc4cc(-c5cc(F)cc(Cl)c5)ccc4[nH]3)nc12` [Example 138, 6-Fluoro-8-(2-methoxy-ethylamino)-imidazo[1,2-a]pyridine-2-carboxylic acid [5-(3-chloro-5-fluoro-phenyl)-1H-benzoimidazol-2-yl]-amide], it took 1.27 µM to reach half-maximal inhibition (IC50).
Molecule `COCCCNc1cc(F)cn2cc(C(=O)Nc3nc4cc(-c5cc(F)cc(Cl)c5)ccc4[nH]3)nc12` [Example 139, 6-Fluoro-8-(3-methoxy-propylamino)-imidazo[1,2-a]pyridine-2-carboxylic acid [5-(3-chloro-5-fluoro-phenyl)-1H-benzoimidazol-2-yl]-amide] had an IC50 of 0.48 µM.
`COCCOc1cc(F)cn2cc(C(=O)Nc3nc4cc(-c5cc(F)cc(Cl)c5)ccc4[nH]3)nc12` [Example 140, 6-Fluoro-8-(2-methoxy-ethoxy)-imidazo[1,2-a]pyridine-2-carboxylic acid [5-(3-chloro-5-fluoro phenyl)-1H-benzoimidazol-2-yl]-amide]: the half-maximal inhibitory concentration (IC50) was found to be 0.25 µM.
The figure for `CN(C)CCOc1cc(F)cn2cc(C(=O)Nc3nc4cc(-c5cc(F)cc(Cl)c5)ccc4[nH]3)nc12` [Example 141, 8-(2-Dimethylamino-ethoxy)-6-fluoro-imidazo[1,2-a]pyridine-2-carboxylic acid [5-(3-chloro-5-fluoro-phenyl)-1H-benzoimidazol-2-yl]-amide] is 0.66 µM; for `CN(C)CCOc1cc(Cl)cn2cc(C(=O)Nc3nc4cc(-c5cc(F)cc(Cl)c5)ccc4[nH]3)nc12` [Example 142, 6-Chloro-8-(2-dimethylamino-ethoxy)-imidazo[1,2-a]pyridine-2-carboxylic acid [5-(3-chloro-5-fluoro-phenyl)-1H-benzoimidazol-2-yl]-amide] it is 0.34 µM; for `O=C(Nc1nc2cc(-c3cc(F)cc(Cl)c3)ccc2[nH]1)c1cn2cc(Cl)cc(Cl)c2n1` [Example 143, 6,8-Dichloro-imidazo[1,2-a]pyridine-2-carboxylic acid [5-(3-chloro-5-fluoro-phenyl)-1H-benzoimidazol-2-yl]-amide] it is 1.06 µM.
Molecule `Cc1cc(Cl)c2nc(C(=O)Nc3nc4cc(-c5cc(F)cc(Cl)c5)ccc4[nH]3)cn2c1` [Example 144, 8-Chloro-6-methyl-imidazo[1,2-a]pyridine-2-carboxylic acid [5-(3-chloro-5-fluoro-phenyl)-1H-benzoimidazol-2-yl]-amide] showed a 50% inhibitory concentration (IC50) of 0.55 µM.
As for `O=C(Nc1nc2cc(-c3cc(F)cc(Cl)c3)ccc2[nH]1)c1cn2cc(F)cc(OCCN3CCOCC3)c2n1` [Example 145, 6-Fluoro-8-(2-morpholin-4-yl-ethoxy)-imidazo[1,2-a]pyridine-2-carboxylic acid [5-(3-chloro-5-fluoro-phenyl)-1H-benzoimidazol-2-yl]-amide], the half-maximal inhibitory concentration (IC50) turned out to be 0.52 µM.
`Cc1cc(OCCN(C)C)c2nc(C(=O)Nc3nc4cc(-c5cc(F)cc(Cl)c5)ccc4[nH]3)cn2c1` [Example 146, 8-(2-Dimethylamino-ethoxy)-6-methyl-imidazo[1,2-a]pyridine-2-carboxylic acid [5-(3-chloro-5-fluoro-phenyl)-1H-benzoimidazol-2-yl]-amide] had an IC50 of 0.32 µM.
